Laboratory results as given in article PMC4788259 (PLoS Neglected Tropical Diseases, 2016).

Each compound was assayed on E. multilocularis metacestodes (assay: PGI assay: phosphoglucose isomerase release from damaged metacestodes). Conditions: 10 μM, 5 days, single wells, relative to DB1127 (10 μM).
Type: cell-based, Echinococcus multilocularis
Procedure: The preparation of E. multilocularis metacestode material (strain H95) from intraperitoneally (i.p.) infected BALB/c mice was performed as described earlier. Metacestode vesicles were used for in vitro drug screening when they reached 2 to 4 mm in diameter.
For screening of the Malaria Box against E. multilocularis metacestodes, the PGI screening assay was applied that measures the release of the enzyme phosphoglucose isomerase (PGI) upon physical impairment of metacestodes. The screening setup was done in 24 well plates as described by Stadelmann et al. For initial screening, each drug was applied at 10 μM to metacestodes in single wells. As a positive control-drug, the dicationic diguanidino compound DB1127 (10 μM) was used and 0.1% DMSO was added as negative control. Metacestodes were cultured in the presence of the compounds for 5 days, after which PGI release was quantified exactly as stated in Stadelmann et al. […] Averages, standard deviations and EC50 values were calculated in Microsoft Excel 2010.

Compound	PGI (% of DB1127 at 10 uM)
COc1ccc(C(=O)Nc2nonc2-c2ccc(OC)c(OC)c2)cc1Cl [MMV011567]	-5.45%
O=C(NC1CCCCC1)C(c1cccs1)N(CCc1ccccc1)C(=O)c1ccco1 (stereo not shown) [MMV666106]	2.06%
CC(C)=CCN1CCC(C(=O)Nc2ccc(-c3nc4ccccc4[nH]3)cc2)CC1 [MMV665946]	-26.45%
CCOC(=O)c1cn(CC)c2cc(N(C)CCc3ccc(OC)c(OC)c3)c(F)cc2c1=O [MMV665977]	-67.06%
Cc1ccc(OCCCCCCNCCO)c(C)c1 [MMV666020]	2.96%
CCCc1c(C)nc2ccc(Br)cc2c1O [MMV666095]	-30.45%
COc1ccc(CCN2CCC(CN(C)Cc3cnn(-c4ccccc4)c3)CC2)cc1 [MMV666069]	-33.62%
COc1ccc(C=C2SC(Nc3ccc(F)cc3)=NC2=O)c(OC)c1 [MMV084434]	7.76%
CCOC(=O)c1c(C)n(-c2ccccc2)c2ccc(OC(=O)c3cc(OC)c(OC)c(OC)c3)cc12 [MMV396664]	-2.70%
CCOC(=O)c1c(C)n(-c2ccc(Cl)cc2)c2ccc(OC(=O)C=Cc3ccccc3)cc12 [MMV666600]	-39.04%
Cc1ccc(Cl)cc1N1CCN(CCCNC(=O)C2CCN(c3nc4ccccc4[nH]3)CC2)CC1 [MMV019746]	-24.98%
O=C(Nc1ccsc1C(=O)NC1CCCCC1)c1ccc(F)cc1 [MMV665939]	-15.17%
COc1ccc(C2NCCc3c2[nH]c2ccccc32)cc1CN1CCN(c2ccc(F)cc2)CC1.Cl (stereo not shown) [MMV019690]	51.28%
CCCCCCc1cc(O)c2c3c(c(=O)oc2c1)CCC(C)C3 (stereo not shown) [MMV665987]	4.36%
O=C(Nc1ccc(Cl)cc1)N1CCN(c2ccc3nncn3n2)CC1 [MMV665917]	-87.17%
COc1ccc(OC)c(C2C3=C(CC(C)(C)CC3=O)N(c3ccc(Cl)c(Cl)c3)C3=C2C(=O)CC(C)(C)C3)c1 [MMV007208]	-12.95%
CCN(CC)CCNc1ccnc2cc(Cl)ccc12 [MMV006087]	-37.06%
CCOc1ccc(N2C(N)=NC(N)=NC2(C)C)cc1.Cl [MMV667486]	-3.47%
Cc1cc(NC(=O)C2c3ccccc3C(=O)N(CC(C)C)C2c2cccs2)no1 (stereo not shown) [MMV006429]	-37.87%
COc1ccccc1N1C(=N)SC(=Cc2ccc(OCc3ccccc3F)cc2)C1=O [MMV007199]	-51.03%

Compound	PGI (% of DB1127 at 10 uM)
CC(C)(C)CC(C)(C)NCC(O)COc1ccc2c(c1)CCC2.Cl (stereo not shown) [MMV665817]	-44.11%
Cc1ccc(N2C3c4ccccc4N(S(=O)(=O)c4ccc(C)cc4)C2c2ccccc2N3S(=O)(=O)c2ccc(C)cc2)cc1 [MMV007160]	-42.36%
COc1ccc(NC(=O)C2c3ccccc3C(=O)N(CC(C)C)C2c2cccs2)cc1Cl (stereo not shown) [MMV000642]	-45.07%
CN(C)c1ccc(N=Cc2ccc(N3CCOCC3)cc2)cc1 [MMV073843]	-14.14%
Cc1cc(N2CCCC2)nc(Nc2ccc(NC(=O)CCc3ccccc3)cc2)n1 [MMV396669]	-21.92%
Oc1ccc(-c2nc(-c3ccc4oc5ccc(-c6[nH]c(-c7ccc(O)cc7)nc6-c6ccccc6)cc5c4c3)c(-c3ccccc3)[nH]2)cc1 [MMV000753]	-5.15%
Cl.Oc1ccccc1CNCC12CC3CC(CC(C3)C1)C2 [MMV020788]	-57.58%
COc1ccc(C(=O)C(CCC(CNC(C)(C)C)C(=O)c2ccc(OC)cc2)CNC(C)(C)C)cc1 (stereo not shown) [MMV007591]	-0.71%
COc1cccc(Nc2nc(N)c3ccccc3n2)c1.Cl [MMV019199]	-26.29%
CC(NCc1ccccc1)c1cc(Cl)ccc1O (stereo not shown) [MMV665789]	-38.95%
CSC1=NC(=Nc2c(C)cccc2C)C2(CCC(C(C)(C)C)CC2)N1c1ccc(Cl)cc1 (stereo not shown) [MMV666596]	-70.72%
C=CC12CCN(CC1)C(C(O)c1ccnc3ccc(OC)cc13)C2.Cl (stereo not shown) [MMV665782]	-43.49%
CCOc1ccc(C2N(C)c3ccccc3N2C)cc1 [MMV075490]	26.52%
FC(F)(F)c1cccc(Nc2nc(-c3ccccc3)nc3ncccc23)c1 [MMV665798]	30.38%
Cc1ccnc(NC(c2cccc(OCc3ccccc3)c2)c2ccc3cccnc3c2O)c1 (stereo not shown) [MMV000720]	-5.36%
O=C(Nc1ccccc1O)c1ccc(Oc2cccc(C(=O)Nc3ccccc3O)c2)cc1 [MMV665888]	-15.91%
COc1ccc(-c2nc(N3CCN(C(=O)C4CCCCC4)CC3)c3c4c(sc3n2)CCCC4)cc1 [MMV396594]	-22.30%
COc1nc(Nc2ccc(C(C)C)cc2)nc(OC)n1 [MMV007808]	-19.50%
CCCc1c(C)nc2ccccc2c1O [MMV666081]	-67.20%
COc1ccc(C(=O)Nc2ccc3nc(N4CCCCC4)cc(C)c3c2)cc1OC [MMV019758]	-36.67%

Compound	PGI (% of DB1127 at 10 uM)
CCC(=O)Nc1nnc(Cc2ccc(OC)c(OC)c2)s1 [MMV020942]	-6.11%
COc1cccc(Cn2c(Oc3ccccc3)nc3c2c(=O)n(C)c(=O)n3C)c1 [MMV396705]	-23.91%
CCCN(CCC)CCCNC(=O)c1cc2c(-c3ccc(OC)c(OC)c3)nn(C)c2s1 [MMV000561]	-1.54%
COc1ccc(CN2CCN(Cc3ccccc3)CC2)c(O)c1 [MMV665944]	-7.26%
CCOc1cc(CNC(C)C(O)c2ccccc2)cc(Cl)c1OCC (stereo not shown) [MMV396633]	30.39%
COc1cccc(-c2nn(C)c3sc(C(=O)NCCN4CCN(c5ccccc5F)CC4)cc23)c1 [MMV019064]	-17.87%
Cc1cccc(Nc2nc(N)c3ccccc3n2)c1.Cl [MMV019110]	-9.63%
CCCCCCc1cc2cc(-c3csc(C=Cc4ccccc4)n3)c(=O)oc2cc1O [MMV666692]	-4.22%
Cc1sc(NC(=O)c2ccccc2)c(C(c2cccs2)N2CCN(c3ccccc3)CC2)c1C (stereo not shown) [MMV396652]	-26.88%
COc1ccc(/C=C2/SC(=Nc3ccccc3)NC2=O)cc1 [MMV665836]	-11.27%
CCOC(=O)c1c[nH]c2c(CC)cccc2c1=O [MMV498479]	-7.93%
O=C(O)C(=O)O.Oc1ccc(Br)cc1CN1CCN(Cc2cccc(F)c2)CC1 [MMV000356]	-18.68%
COc1ccc(C(O)(CCC(C)C)C(CN2CCOCC2)c2ccc(Cl)cc2)cc1.Cl (stereo not shown) [MMV000617]	-8.60%
COc1cccc(Nc2nc(NCCO)c3ccccc3n2)c1.Cl [MMV011944]	15.53%
Cc1ccc(C)c(Cn2c(N3CCC(C(=O)NCc4cccs4)CC3)nc3ccccc32)c1 [MMV019741]	-17.48%
c1ccc2cc3c(Nc4ccc(N5CCOCC5)cc4)ccnc3cc2c1 [MMV006861]	-26.86%
O=C(Nc1ccc(CN2CCOCC2)cc1)c1ccc(-c2cc(Cl)ccc2Cl)o1 [MMV020651]	-24.05%
N=c1n(CCN2CCCCC2)c2ccccc2n1CC(=O)c1ccc(Cl)c(Cl)c1 [MMV396723]	22.11%
